Here are results for four compounds from paper PMC9231011, “Irreversible Antagonists for the Adenosine A2B Receptor” (Molecules, 2022).

One experiment deals with T1, human A2AAR (Homo sapiens, UniProt P29274).
T1 construct: expressed in transfected cells; host or cells: FreeStyle CHO-S cells, pcDNA3.1(+), transient
Put plainly: Competitive radioligand binding vs [3H]MSX-2. To be noted: for Ki: apparent Ki for irreversibly binding ligands, three independent experiments, read-out: A2AAR vs. Radioligand [3H]MSX-2 Ki ± SEM. An excerpt:
(§1) The potentially irreversible xanthine derivatives were investigated for their binding affinity at human A2BARs and for their selectivity versus the other human AR subtypes, A1, A2A, and A3, by competitive radioligand binding experiments.
(§2) The human A2AAR, the mutant human A2BAR (K269^7.32L), and the human A3AR were transiently expressed in FreeStyle^TM CHO-S cells using the transfection reagent polyethylenimine (PEI) at a ratio of 1:3 to DNA according to the manufacturer’s guideline. pcDNA3.1(+) was used as the transfection vector containing the cDNA for either the wt ARs or the K269^7.32L mutant A2BAR that was prepared by site-directed mutagenesis with the following primer: forward […], reverse […]. CHO-S cells were grown in FreeStyle^TM CHO Expression Medium supplemented with 8 mM L-glutamine before use and split to 0.5 mio. cells per mL the day before transfection. Twenty-four hours after transfection, cells were spun down by centrifugation for 15 min at 500× g. Cells were disrupted by resuspension in 5 mM tris(hydroxymethyl)aminomethane buffer (Tris, pH 7.4) containing 2 mM ethyl-ene¬diaminetetraacetic acid (EDTA) with subsequent homogenization using an Ultra-Turrax homogenizer. The cell suspension was centrifuged for 10 min at 1000× g and the obtained supernatant was pelleted by centrifugation for 60 min at 48,000× g. The supernatant was discarded and the pellet washed with 50 mM Tris (pH 7.4). After centrifugation for at least 30 min at 48,000× g, the pellet was resuspended in 50 mM Tris (pH 7.4), aliquoted and stored at −80 °C for further use. All centrifugation steps were carried out at 4 °C. Membrane preparations of the human wt A1AR and the human wt A2BAR were purchased from Perkin Elmer (Perkin-Elmer, Waltham, MA, USA) (catalogue numbers ES-010-M400UA and ES-013-M400UA).
(§3) Binding experiments were performed using 50 mM Tris buffer (pH 7.4) in a total volume of 400 µL for the A1AR, A2AAR, A3AR, and 1000 µL for the A2BAR. Initial screening was carried out in two independent experiments at 1 µM. Competition of compounds versus [^3H]CCPA (A1AR, final concentration 1 nM), [^3H]MSX-2 (A2AAR, final concentration 1 nM), [^3H]PSB-603 (A2BAR, final concentration 0.3 nM) and [^3H]PSB-11 (A3AR, final concentration 1 nM) was investigated. An amount of 7.5–25 µg of total protein per well was employed, incubated with 2 U of adenosine deaminase per mL beforehand. Non-specific binding was determined in the presence of 10 µM of 2-chloroadenosine, 10 µM of CGS 15943, 10 µM of 8-cyclopently-1,3-dipropylxanthine or 100 µM of (R)-N^6-phenylisopropyadenosine for A1-, A2A-, A2B- and A3ARs, respectively. Competition association experiments (at 25 °C) were performed in the same way but the protein was added delayed at indicated time points and the cell membranes were harvested after 1 min. Incubation was terminated by rapid filtration through GF/B glass fiber filters (Whatman) using a 48-well harvester (Brandel) after 90 (A1AR), 30 (A2AAR), 75 (A2BAR), and 45 min (A3AR) of incubation, respectively. Filters were pre-incubated with 0.3% (w/v) of PEI for 30–60 min in case of the A2AAR assay. Filters were rinsed three times with ice-cold 50 mM Tris, pH 7.4 (supplemented with 0.1% (w/v) bovine serum albumin for the A2BAR) and transferred into scintillation vials. Filters were then incubated with 2.5 mL of scintillation cocktail (ProSafe FC plus) for at least 6 h. Subsequently, radioactivity was determined using a liquid scintillation counter (Tricarb 2810TR, Perkin Elmer).

For the next experiment, the target named is T2, human A1AR (Homo sapiens, UniProt P30542).
T2 construct: purchased Perkin Elmer ES-010-M400UA
T2 sequence (P30542 1-326): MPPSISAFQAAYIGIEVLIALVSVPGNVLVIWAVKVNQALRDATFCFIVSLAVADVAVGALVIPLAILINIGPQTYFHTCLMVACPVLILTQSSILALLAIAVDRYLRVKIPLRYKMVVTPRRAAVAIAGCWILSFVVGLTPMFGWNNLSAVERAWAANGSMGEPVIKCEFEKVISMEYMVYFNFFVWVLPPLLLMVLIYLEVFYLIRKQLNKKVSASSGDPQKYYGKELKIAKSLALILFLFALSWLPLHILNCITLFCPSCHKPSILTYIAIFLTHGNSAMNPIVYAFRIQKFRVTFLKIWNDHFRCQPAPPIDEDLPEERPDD
Put plainly: Competitive radioligand binding vs [3H]CCPA. As to conditions: for Ki: apparent Ki for irreversibly binding ligands, three independent experiments, read-out: A1AR vs. Radioligand [3H]CCPA Ki ± SEM.
Text: as §1, §2, §3

T1 sequence (P29274 whole entry): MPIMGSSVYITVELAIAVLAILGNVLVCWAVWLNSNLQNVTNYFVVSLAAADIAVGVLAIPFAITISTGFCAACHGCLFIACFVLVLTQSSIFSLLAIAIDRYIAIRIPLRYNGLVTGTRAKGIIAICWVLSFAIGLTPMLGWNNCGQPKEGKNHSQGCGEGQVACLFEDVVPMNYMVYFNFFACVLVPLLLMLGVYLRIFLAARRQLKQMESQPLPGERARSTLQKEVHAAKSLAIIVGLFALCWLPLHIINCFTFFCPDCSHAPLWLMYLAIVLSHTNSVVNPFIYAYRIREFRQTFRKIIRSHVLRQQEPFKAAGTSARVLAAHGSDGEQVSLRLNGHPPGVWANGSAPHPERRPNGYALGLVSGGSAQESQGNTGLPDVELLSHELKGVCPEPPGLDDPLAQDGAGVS

With `CCCn1c(=O)[nH]c2nc(-c3ccc(S(=O)(=O)F)cc3)[nH]c2c1=O` [6a, 4-(2,6-Dioxo-1-propyl-2,3,6,7-tetrahydro-1H-purin-8-yl)benzenesulfonyl fluoride], at human A2AAR, the “A2AAR vs. Radioligand [3H]MSX-2 % inhibition at 1 µM” value was found to be 53%. Further, the Ki at human A2AAR was around 1000 nM; at human A1AR, 406 ± 194 nM.
On to `CCCn1c(=O)c2[nH]c(-c3ccc(S(=O)(=O)F)cc3)nc2n(C)c1=O` [6b, 4-(3-Methyl-2,6-dioxo-1-propyl-2,3,6,7-tetrahydro-1H-purin-8-yl)benzenesulfonyl fluoride], for which the Ki came out at 372 ± 48 nM on human A2AAR and 293 ± 92 nM on human A1AR.
Turning to `CCCn1c(=O)[nH]c2nc(-c3ccc(S(=O)(=O)N4CCC(NC(=O)c5ccc(S(=O)(=O)F)cc5)CC4)cc3)[nH]c2c1=O` [compound 12, 4-((1-((4-(2,6-Dioxo-1-propyl-2,3,6,7-tetrahydro-1H-purin-8-yl)phenyl)sulfonyl)piperidin-4-yl)carbamoyl)benzenesulfonyl fluoride], the “A2AAR vs. Radioligand [3H]MSX-2 % inhibition at 1 µM” value on human A2AAR was determined as 32%. For the same compound, the Ki on human A2AAR and at human A1AR was above 1000 nM throughout. Further, the “A1AR vs. Radioligand [3H]CCPA % inhibition at 1 µM” value on human A1AR (1 µM) came to 22%.
Take `CCCn1c(=O)c2[nH]c(-c3ccc(S(=O)(=O)F)cc3)nc2n(C2CC2)c1=O` [6c, 4-(3-Cyclopropyl-2,6-dioxo-1-propyl-2,3,6,7-tetrahydro-1H-purin-8-yl)benzenesulfonyl fluoride]: the figures for the Ki at human A2AAR and on human A1AR were 72.9 ± 8.1 nM and 41.5 ± 2.8 nM, respectively.
